Laboratory results reported in US11371097B2, “Articles for diagnosis of liver fibrosis” (THE GOVERNMENT OF THE UNITED STATES, as represented by THE …, priority 2015, dated 2022).
“And” between values parts separate entries of the source, which are not always exact repeats. Identical values can stand only once. Like-named read-outs stand apart in the source and are kept apart here.

Tests used:
[1] = format: in vivo, Male Sprague-Dawley rats; details: for Body weight change over the five-day exposure interval: highest dose(s)
Experimental: (§1) In vivo rat experiments were performed at Integrated Laboratory Systems (ILS, Research Triangle Park, NC). ILS's Institutional Animal Care and Use Committee approved all experimental procedures. Research was conducted in compliance with the Animal Welfare Act, and other Federal statutes and regulations relating to animals and experiments involving animals and adheres to principles stated in the “Guide for Care and Use of Laboratory Animals” as prepared by the Committee on Care and Use of Laboratory Animals of the Institute of Laboratory Animal Resources, National Research Council in facilities that are fully accredited by the Association for Assessment and Accreditation of Laboratory Animal Care, International. Male Sprague-Dawley rats (CD IGS [CRL:CD (SD)]) were purchased from Charles River Laboratories (Stone Ridge, N.Y.). Rats weighing 215-245 g (8 weeks old) were used. Briefly, rats were housed two per cage with a rat tunnel enrichment device (Bio-Serve, Frenchtown, N.J.). Rats were fed a Purina Rodent Diet No. 5002 (Ralston Purina Co., St. Louis, Mo.), supplied ad libitum. Animals received reverse osmosis-treated tap water (City of Durham, N.C.) ad libitum, which was changed at least once weekly. Controls in the animal rooms were set to maintain temperatures between 20-In vivo rat experiments were performed at Integrated Laboratory Systems (ILS, Research Triangle Park, NC). ILS's Institutional Animal Care and Use Committee approved all experimental procedures. Research was conducted in compliance with the Animal Welfare Act, and other Federal statutes and regulations relating to animals and experiments involving animals and adheres to principles stated in the “Guide for Care and Use of Laboratory Animals” as prepared by the Committee on Care and Use of Laboratory Animals of the Institute of Laboratory Animal Resources, National Research Council in facilities that are fully accredited by the Association for Assessment and Accreditation of Laboratory Animal Care, International. Male Sprague-Dawley rats (CD IGS [CRL:CD (SD)]) were purchased from Charles River Laboratories (Stone Ridge, N.Y.). Rats weighing 215-245 g (8 weeks old) were used. Briefly, rats were housed two per cage with a rat tunnel enrichment device (Bio-Serve, Frenchtown, N.J.). Rats were fed a Purina Rodent Diet No. 5002 (Ralston Purina Co., St. Louis, Mo.), supplied ad libitum. Animals received reverse osmosis-treated tap water (City of Durham, N.C.) ad libitum, which was changed at least once weekly. Controls in the animal rooms were set to maintain temperatures between 20-25° C. with a relative humidity of 30-70% and a 12-hour light/12-hour dark cycle, lights on at 6:00 AM. Clinically healthy animals were assigned to dose groups using a procedure that stratifies animals across groups by body weight such that mean body weight of each group was not statistically different from any other group using analysis of variance (Statistical Analysis System version 9.2, SAS Institute, Cary, N.C.). Animals were dosed by oral gavage for five consecutive days (+10 minutes from the previous day's dose administration time). Volume was based upon daily body weight.
(§2) Animals were observed cageside one hour following daily dose administration, then 1-2 times per day during dosing regimens. Body weights were measured daily prior to dose administration, and prior to euthanasia. Twenty-four hours after the final dose administration, animals were anesthetized with isoflurane then euthanized by exsanguination followed by decapitation. Livers were harvested at necropsy and weighed to within 0.1 g. One half of the left lobe of the liver was fixed in 10% formalin. The remaining half of the left lobe of the liver was flash frozen in liquid nitrogen, then stored below −70° C. Liver specimens were frozen in less than three minutes from time of death.

[2] = system: liver gene expression; assay: Liver gene expression by microarray (transcriptomic analysis); format: in vivo, rats
Experimental: Serum miRNA expression was measured by next-generation sequencing. Gene expression in the liver was determined by microarray, and global serum and liver protein expression was determined by semi-quantitative mass spectrometry. […] Transcriptomic analysis identified 506 differentially expressed genes in the liver. 13 miRNAs were predicted to target 100 unique differentially expressed genes in the liver. Global proteomics analysis identified 131 differentially expressed proteins in the liver and 53 in the serum. Of these, 7 miRNAs targeted 13 unique genes coding for differentially expressed liver tissue proteins and 3 miRNAs targeted 3 unique genes coding for serum proteins. These 16 differentially expressed miRNAs in the serum are predicted to target and potentially regulate gene expression contributing to the progression of toxic liver injury. (Fermenter M G et al. Serum miRNA as prognostic indicators of toxic liver injury. Submitted abstract in October 2015 for presentation at the Society of Toxicology in March 2016 (New Orleans, La.)).

[3] = system: liver; format: in vivo, Male Sprague-Dawley rats; details: for Periportal fibrosis (Masson's trichrome): 162 mg/kg/day; for Periportal fibrosis (Masson's trichrome) / Centrilobular collagenous accumulation (Masson's trichrome): five-day oral administration; for Fibrosis histopathology: low-dose (carbon tetrachloride: all doses); for Centrilobular collagenous accumulation (Masson's trichrome): 200 mg/kg/day;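 for Inflammation: Severity grades from None 0% through Minimal Mild Moderate to Marked over 80% tissue affected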;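 for Vacuolation: Severity grades from None 0% through Minimal Mild Moderate to Marked over 80% tissue affected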
Experimental: All chemical compounds were diluted in corn oil (CAS No. 8001-30-7) (MP Biomedicals, LLC (Solon, Ohio)). The dose volume was 5 mL/kg. Doses were selected based on doses published in the DrugMatrix database, the National Toxicology Program reports, and ATSDR reports.
as §1
as §2, with “The remaining half of the left lobe of the liver was flash frozen in liquid nitrogen, then stored below −70° C. Liver specimens were frozen in less than three minutes from time of death.” left out

[4] = 4,4′-MDA 22 mg/kg, animals 89-92
[5] = 4,4′-MDA 59.7 mg/kg, animals 93-96
[6] = 4,4′-MDA 162 mg/kg, animals 97-100
[7] = across dose groups, five days (figure legend)
[8] = oral gavage five days, across doses
[9] = exposures on the gene panel (FIG. 9 legend)
[10] = histopathology score, individual animals, Carbon Tetrachloride 200, Bromobenzene 785, Dexamethasone 1 mg/kg
[11] = Carbon Tetrachloride 200 mg/kg, animal 54

For Nc1ccc(Cc2ccc(N)cc2)cc1 [4,4′-methylenedianiline], the “Body weight gain over the five experimental dosing days” value ([1]; dose groups) was “decrease in body weight gain”, the “Body weight change over the five-day exposure interval” value [1] was “gained less weight over the five-day exposure interval than their low-dose counterparts” and the Differentially expressed genes [2] was 506. The “Periportal fibrosis (Masson's trichrome)” value [3] was “periportal fibrosis”, the “Periportal fibrosis (Masson's trichrome)” value ([3]; listed as 4,4′-methylenediani line) was “Perioportal fibrosis was confirmed” and the “Bile Duct Hyperplasia and Fibroplasia” value [3, 4] was 0. The Inflammation [3, 4] was 0, the Necrosis [3, 4] was 0 and the Vacuolation [3, 4] was 0. The “Bile Duct Hyperplasia and Fibroplasia” value [3, 5] was 2 and 3, the Inflammation [3, 5] was 2 and 3 and the Vacuolation [3, 5] was 0. For the same compound, the “Bile Duct Hyperplasia and Fibroplasia” value [3, 6] was 3 and 2, the “Cytoplasmic Alteration” value [3, 6] was 2 and 3 and the Inflammation [3, 6] was 2. The Necrosis [3, 6] was 2 and 1, the Vacuolation [3, 6] was 0 and the “Combined histopathological scores as percent of animals with pathology” value [3, 7] was “dose-dependent increase in severe pathology”. The Fibrosis histopathology [3] was “without fibrosis”, the Degree of fibrosis [3, 8] was “dose-dependent increase in the degree of fibrosis” and the “Histopathology: bile duct hyperplasia, fibrosis, necrosis” value ([3]; oral gavage five days, high doses) was “caused bile duct hyperplasia comorbid with fibrosis and necrosis”.

With Brc1ccccc1 [bromobenzene] the “Body weight gain over the five experimental dosing days” value ([1]; dose groups) was “decrease in body weight gain”, the “Body weight change over the five-day exposure interval” value [1] was “resulted in body weight loss over the study interval” and the “Combined histopathological scores as percent of animals with pathology” value [3, 7] was “dose-dependent increase in severe pathology”. For the same compound, the “Histopathological evidence of bile duct hyperplasia or fibrosis” value ([3]; any dose) was “did not cause histopathological evidence of bile duct hyperplasia or fibrosis at any dose”, the “Histopathological evidence of vacuolation and/or glycogen accumulation” value [3, 9] was “correlated with histopathological evidence of vacuolation and/or glyocgen accumulation” and the Vacuolation ([3]; highest dose) was “varying degrees of vacuolation in all experimental animals”. The “Bile Duct Hyperplasia and Fibroplasia” value [3, 10] was 0, the “Cytoplasmic Alteration” value [3, 10] was 1 (2×) and 2 and 3 and the Inflammation [3, 10] was 1 (3×) and 2. For the same compound, the Vacuolation [3, 10] was 2 and 3 (2×) and 1.

In the case of ClC(Cl)(Cl)Cl [carbon tetrachloride], the Body weight change ([1]; all doses) was “Body weight gain was less than controls at all doses”, the “Body weight gain over the five experimental dosing days” value ([1]; dose groups) was “decrease in body weight gain” and the “Centrilobular collagenous accumulation (Masson's trichrome)” value [3] was “pre-fibrogenic lesions in centrilobular region”. The “Centrilobular collagenous accumulation (Masson's trichrome)” value ([3]; listed as Carbon tetrachloride) was “caused prefibrotic centrilobular collagenous accumulation”, the “Bile Duct Hyperplasia and Fibroplasia” value [3, 11] was 0 and the “Cytoplasmic Alteration” value [3, 11] was 0. The Inflammation [3, 11] was 0, the Necrosis [3, 11] was 1 and the Vacuolation [3, 11] was 3. The “Combined histopathological scores as percent of animals with pathology” value [3, 7] was “dose-dependent increase in severe pathology”, the “Histopathological evidence of vacuolation and/or glycogen accumulation” value [3, 9] was “correlated with histopathological evidence of vacuolation and/or glyocgen accumulation” and the “Bile Duct Hyperplasia and Fibroplasia” value [3, 10] was 0. The Inflammation [3, 10] was 0, the Vacuolation [3, 10] was 4 and 3 (2×) and the Fibrosis histopathology [3] was “without fibrosis”. For the same compound, the Vacuolation [3, 8] was “dose-dependent increase in vacuolation indicative of lipid accumulation without evidence of fibrosis”.

In the case of C[C@@H]1C[C@H]2[C@@H]3CCC4=CC(=O)C=C[C@]4(C)[C@@]3(F)[C@@H](O)C[C@]2(C)[C@@]1(O)C(=O)CO [dexamethasone], the Body weight change ([1]; rat, in vivo) was “Body weight loss occurred at all doses”, the “Body weight gain over the five experimental dosing days” value ([1]; rat, in vivo) was “decrease in body weight gain” and the Tissue necrosis ([3]; highest dose (300 mg/kg)) was “moderate tissue necrosis affecting >60-80% of the tissue in two animals”. The “Combined histopathological scores as percent of animals with pathology” value ([3]; rat, in vivo) was “dose-dependent increase in severe pathology”, the Cytoplasmic Alteration ([3]; rat, in vivo) was “marked cytoplasmic alteration characteristic of glycogen accumulation” and the “Histopathological evidence of vacuolation and/or glycogen accumulation” value ([3]; rat, in vivo) was “correlated with histopathological evidence of vacuolation and/or glyocgen accumulation”.
